In paper PMC6325219, “Preclinical Characterization of NVR 3-778, a First-in-Class Capsid Assembly Modulator against Hepatitis B Virus” (Antimicrobial Agents and Chemotherapy, 2018):
Where “and” joins values, the source holds several entries; their conditions need not be identical. Equal entries are not always repeated. Entries after “also recorded” stand apart in the source; their conditions may differ. Marks after values point to notes of the source that are not given here.

Tests used:
[1] = test system: HBV core protein variant I105L; test: Transient-transfection antiviral study in HepG2 cells, core variant I105L; assay type: cell-based, hepatitis B virus; details: for EC50 FC, I105L: ratio of mean EC50 for core variant over wild-type HBV
Experimental: (§4) Cells were cotransfected with the HBV plasmids (100 ng/well) and a Gaussia expression plasmid (10 ng/well) (Thermo Scientific) using the Lipofectamine LTX Plus transfection reagent (Life Technologies). Transfection mixtures were removed after overnight incubation, and cells were treated with serially diluted NVR 3-778 at a final dimethyl sulfoxide (DMSO) concentration of 0.5%. After 3 days of incubation with the compound, the supernatants were collected and secreted Gaussia luciferase was measured using a Gaussia Flash luciferase assay kit (Thermo Scientific). […] Samples were diluted into lysis buffer (Affymetrix) containing 2.5 µg proteinase K (Affymetrix) at 50°C for 40 min. Intracellular encapsidated HBV DNA was denatured for 30 min at 25°C in 0.2 M NaOH (Sigma) and incubated with HBV DNA probes designed to hybridize to the minus-strand HBV DNA (Affymetrix). The denatured DNA was subsequently detected using a QuantiGene assay kit, according to the branched DNA (bDNA) assay recommended by the manufacturer (Affymetrix).

[2] = test system: HBV core protein variant I105V; test: Transient-transfection antiviral study in HepG2 cells, core variant I105V; assay type: cell-based, hepatitis B virus; details: for EC50 FC, I105V: ratio of mean EC50 for core variant over wild-type HBV
Experimental: as §4

[3] = test system: HBV rtL180M/M204V/N236T variant; test: microbe, parasite or virus in culture; assay type: cell-based, hepatitis B virus
From the text: (§1) Plasmids containing HBV DNA with rtN236T, rtA181V, rtA181V/N236T, and rtL180M/M204V/N236T were generated using the GT B WT or rtL180M/M204V DNA-containing plasmids and site-directed mutagenesis (Agilent Technologies). A panel of nine different HBV core variants (cW102G, cW102R, cI105V, cI105L, cI105T, cT109S, cT109M, cT109I, and cY118F) was generated, also using the GT B WT DNA-containing plasmid and site-directed mutagenesis. The full-length genome from all plasmids was sequenced to confirm that only the intended nucleotide change(s) was present. Finally, HBV sequences from genotypes A (GenBank accession number AF305422), C (GenBank accession number AB033550), D (GenBank accession number V01460), E (GenBank accession number AB274971), F (GenBank accession number AB036912), G (GenBank accession number AF160501), and H (GenBank accession number AB375159) were gene synthesized as 1.1 times the genome length together with part of the CMV promoter at the 5′ end. The gene-synthesized piece was validated by sequencing and subcloned into the pCMV-HBV plasmid using the restriction sites SalI and NdeI (Genewiz, USA).
(§2) HepG2 cells were seeded in 96-well plates at a density of 20,000 cells/well and allowed to attach overnight at 37°C in 5% CO2. Cells were cotransfected with the HBV plasmids (100 ng/well) and a Gaussia expression plasmid (10 ng/well) (Thermo Scientific) using the Lipofectamine LTX Plus transfection reagent (Life Technologies). Transfection mixtures were removed after overnight incubation, and cells were treated with serially diluted NVR 3-778 at a final dimethyl sulfoxide (DMSO) concentration of 0.5%. After 3 days of incubation with the compound, the supernatants were collected and secreted Gaussia luciferase was measured using a Gaussia Flash luciferase assay kit (Thermo Scientific). Cells were lysed with 0.33% NP-40 (Thermo Scientific), and the cytoplasmic fractions were treated with 2 units of Turbo DNase (Invitrogen) and 10 units of S7 nuclease (Roche) in CutSmart buffer (New England Biolabs) containing 25 µM CaCl2 (G-Biosciences) at 37°C for 60 min, followed by inactivation of the enzymes at 75°C for 15 min. Samples were diluted into lysis buffer (Affymetrix) containing 2.5 µg proteinase K (Affymetrix) at 50°C for 40 min. Intracellular encapsidated HBV DNA was denatured for 30 min at 25°C in 0.2 M NaOH (Sigma) and incubated with HBV DNA probes designed to hybridize to the minus-strand HBV DNA (Affymetrix). The denatured DNA was subsequently detected using a QuantiGene assay kit, according to the branched DNA (bDNA) assay recommended by the manufacturer (Affymetrix).
(§3) To determine percent inhibition, the mean background signal from wells containing only culture medium was subtracted from the signal for all other samples, and percent inhibition at each compound concentration was calculated by normalization to the signals for HepG2.2.15 cells treated with 0.5% DMSO. […] Both CalcuSyn and MacSynergy II (Ann Arbor, MI) software were used to evaluate the effect of compound combinations ([27]). After data analysis at the 95% confidence level, values of synergy or antagonism of <25 µM^2% were defined as insignificant, those between 25 and 50 µM^2% were defined as minor, those between 50 and 100 µM^2% were defined as moderate, and those of >100 µM^2% were defined as strong.

[4] = test system: HBV rtL180M/M204V variant; test: microbe, parasite or virus in culture; assay type: cell-based, hepatitis B virus
From the text: as §1, §2, §3

HepG2.2.15 cells = test: Cell viability of HepG2.2.15 cells (ATP levels, CellTiter-Glo); assay type: cell-based; details: NVR 3-778 up to 4 μM and LMV up to 1.5 μM, alone or in combination, 6 days
Experimental: In combination studies, cells were treated with compounds either alone or in combination after combining the compounds in a checkerboard format. In studies examining the effect of human serum, serially diluted NVR 3-778 was added into cell culture medium containing 0% to 40% human serum (BioreclamationIVT). Cells were incubated with the compounds for 3 days, after which the medium was removed, fresh medium containing the compounds was added to the cells, and the cells were incubated for another 3 days prior to harvesting of the supernatants or cells for antiviral assays. To quantify intracellular encapsidated rcDNA or encapsidated pgRNA, cells were first solubilized using lysis buffer containing 1% NP-40 and 10 mM CaCl2. The cytoplasmic fraction was then treated with S7 nuclease (6 units) to remove nonencapsidated nucleic acids, after which the S7 nuclease was inactivated by the addition of EDTA (0.5 M). […] The levels of HBV DNA were determined by a bDNA assay as described above (Affymetrix). Supernatants or cell lysates containing HBV RNA were treated with proteinase K (2.5 µg) at 50°C for 40 min, transferred to a capture plate containing HBV RNA probe sets, and hybridized overnight at 55°C. Captured HBV RNA was measured by the addition of a chemiluminescent substrate using a QuantiGene assay (Affymetrix). […] At day 6, the CellTiter-Glo reagent was added to the cells and viability was determined according to the manufacturer’s protocol (Promega). Luminescence signals were measured at 0.2 s using a Victor X4 multimode plate reader (PerkinElmer).

HBV (GT C) = test system: HBV (GT C); design: method as in PMID 29079518; details: cited from earlier work
[5] = Hepatocyte stability, human hepatocytes; assay type: in vitro ADME; details: 120 min incubation
Experimental: Following in vitro incubation for 120 min with human, mouse, or dog hepatocytes, >85% of the NVR 3-778 remained intact. […] The fewest number of metabolites was found following incubation with human hepatocytes, where 92% of the NVR 3-778 remained after a 120-min incubation.

[6] = ratio of mean EC50 against variant over WT HBV, HepG2 cells

Row | Compound | EC50 FC, I105L [1] | EC50 FC, I105V [2] | EC50 ([3]; Hepatitis B virus, HepG2, read-out: EC50, rtL180M/M204V/N236T variant) | EC50 ([4]; Hepatitis B virus, HepG2, read-out: EC50 (mean), rtL180M/M204V variant) | Effect on cell viability (HepG2.2.15 cells) | EC50 ([1]; Hepatitis B virus, HepG2, read-out: EC50, core variant I105L) | EC50 ([2]; Hepatitis B virus, HepG2, read-out: EC50, core variant I105V) | Antiviral activity compared with ETV (HBV (GT C); HBV-infected humanized mice, 405 mg/kg BID) | Reduction of serum HBV DNA and HBV RNA, combination with pegIFN versus NVR 3-778 alone, pegIFN alone or entecavir alone (HBV (GT C); HBV-infected humanized mice) | Effect on serum HBV DNA and HBV RNA levels (HBV (GT C); humanized mice infected with GT C HBV) | NVR 3-778 remaining intact [5] | EC50 fold change, rtL180M/M204V/N236T [3, 6] | EC50 fold change, rtL180M/M204V [4, 6]
1 | Nc1ccn([C@@H]2CS[C@H](CO)O2)c(=O)n1 [LMV, lamivudine, reference compound] | 1.3 fold | 0.84 fold | > 100 µM | > 100 µM | did not affect cell viability | – | – | – | – | – | – | – | –
2 | O=C(Nc1cc(F)c(F)c(F)c1)c1ccc(F)c(S(=O)(=O)N2CCC(O)CC2)c1 [NVR 3-778] | 1.5 fold | 1.8 fold | – | – | did not affect cell viability | 0.34 ± 0.13 µM | 0.41 ± 0.11 µM | antiviral activity similar to that of the nucleoside analog ETV | greater reduction in both serum HBV DNA and HBV RNA levels | effective at reducing both serum HBV DNA and HBV RNA levels; also recorded: significant reductions in HBV DNA and secreted HBV RNA levels | > 85% and 92% | 1.4 ± 0.5^d fold | 1.3 ± 0.6^d fold
